# In patent US20110224208A1, “NOVEL INHIBITORS OF FLAVIVIRUS REPLICATION” (KATHOLIEKE UNIVERSITEIT LEUVEN, K.U. LEUVEN R&D, priority 2008, published 2011):
# Test system: HCV replicon I389luc-ubi-neo/NS3-3'/5.1
# Experiment: Anti-HCV replicon assay (luciferase activity) in Huh-5-2 cells
# Assay type: cell-based, Hepatitis C virus
# Conditions: Hepatitis C virus, Huh-5-2, 72 h, concentration required to inhibit luciferase activity in the replicon system by 50%
# Description: Cells were seeded at a density of 7000 cells per well in 96 well View Plate™ (Packard) in medium containing the same components as described above, except for G418. Cells were allowed to adhere and proliferate for 24 hr. At that time, culture medium was removed and serial dilutions of the test compounds were added in culture medium lacking G418. Interferon alfa 2a (500 IU) was included as a positive control. Plates were further incubated at 37° C. and 5% CO2 for 72 hours. Replication of the HCV replicon in Huh-5 cells results in luciferase activity in the cells. Luciferase activity is measured by adding 50 μl of 1×Glo-lysis buffer (Promega) for 15 minutes followed by 50 ul of the Steady-Glo Luciferase assay reagent (Promega). Luciferase activity is measured with a luminometer and the signal in each individual well is expressed as a percentage of the untreated cultures. […] Instead the density of the culture is measured by means of the MTS method (Promega).
row,SMILES,IC50 [µg/mL]
1,"COCCN1C(=O)c2ccccc2C(C(=O)Nc2cccc(OC)c2)C1C#N (stereo not drawn) [C143, 3-cyano-2-(2-methoxyethyl)-N-(3-methoxyphenyl)-1-oxo-1,2,3,4-tetrahydroisoquinoline-4-carboxamide]",24.3
2,"COCCN1C(=O)c2ccccc2C(C(=O)Nc2cccc(OC)c2)C1c1ccnn1C (stereo not drawn) [C105, 2-(2-methoxyethyl)-N-(3-methoxyphenyl)-3-(1-methyl-1H-pyrazol-5-yl)-1-oxo-1,2,3,4-tetrahydroisoquinoline-4-carboxamide]",50.5
3,"COCCN1C(=O)c2cccc(F)c2C(C(=O)Nc2cccc(OC)c2)C1c1cccs1 (stereo not drawn) [C61, 5-Fluoro-2-(2-methoxyethyl)-N-(3-methoxyphenyl)-1-oxo-3-(thiophen-2-yl)-1,2,3,4-tetrahydroisoquinoline-4-carboxamide]",0.22
4,"COCCN1C(=O)c2ccccc2C(C(=O)Nc2cc(C)nn2C)C1c1cccs1 (stereo not drawn) [C109, N-(1,3-dimethyl-1H-pyrazol-5-yl)-2-(2-methoxyethyl)-1-oxo-3-(thiophen-2-yl)-1,2,3,4-tetrahydroisoquinoline-4-carboxamide]",43.4
5,"COCCN1C(=O)c2cc(C(F)(F)F)ccc2C(C(=O)Nc2cccc(OC)c2)C1c1cccs1 (stereo not drawn) [C92, 2-(2-methoxyethyl)-N-(3-methoxyphenyl)-1-oxo-3-(thiophen-2-yl)-7-(trifluoromethyl)-1,2,3,4-tetrahydroisoquinoline-4-carboxamide]",7.04
6,"COCCN1C(=O)c2ccccc2C(C(=O)NCCOc2ccccc2)C1c1cccs1 (stereo not drawn) [C34, 2-(2-Methoxyethyl)-1-oxo-N-(2-phenoxyethyl)-3-(thiophen-2-yl)-1,2,3,4-tetrahydroisoquinoline-4-carboxamide]",16.5
7,"CCC1C(C(=O)Nc2cccc(OC)c2)c2ccccc2C(=O)N1CCOC (stereo not drawn) [C58, 3-Ethyl-2-(2-methoxyethyl)-N-(3-methoxyphenyl)-1-oxo-1,2,3,4-tetrahydroisoquinoline-4-carboxamide]",1.81
8,"COCCN1C(=O)c2ccccc2C(C(=O)Nc2cccc(OC)c2)C1c1ccccc1 (stereo not drawn) [C28, 2-(2-Methoxyethyl)-N-(3-methoxyphenyl)-1-oxo-3-phenyl-1,2,3,4-tetrahydroisoquinoline-4-carboxamide]",38.8
9,"COCCN1C(=O)c2ccccc2C(C(=O)Nc2ccc(Oc3ccccc3)nc2)C1c1cccs1 (stereo not drawn) [C158, 2-(2-methoxyethyl)-1-oxo-N-(6-phenoxypyridin-3-yl)-3-(thiophen-2-yl)-1,2,3,4-tetrahydroisoquinoline-4-carboxamide]",0.04
10,"COCCN1C(=O)c2ccccc2C(C(=O)Nc2ccc(N3CCOCC3)cc2)C1c1cccs1 (stereo not drawn) [C121, 2-(2-methoxyethyl)-N-(4-morpholinophenyl)-1-oxo-3-(thiophen-2-yl)-1,2,3,4-tetrahydroisoquinoline-4-carboxamide]",1.06
11,"COCCN1C(=O)c2ccccc2C(C(=O)Nc2cccc(OC)c2)C1c1ccc(C)s1 (stereo not drawn) [C12, 2-(2-Methoxyethyl)-N-(3-methoxyphenyl)-3-(5-methylthiophen-2-yl)-1-oxo-1,2,3,4-tetrahydroisoquinoline-4-carboxamide]",1.2
12,"COc1cccc(NC(=O)C2c3ccccc3C(=O)N(Cc3ccco3)C2c2cccs2)c1 (stereo not drawn) [C4, 2-(Furan-2-ylmethyl)-N-(3-methoxyphenyl)-1-oxo-3-(thiophen-2-yl)-1,2,3,4-tetrahydroisoquinoline-4-carboxamide]",41.5
13,"COCCN1C(=O)c2ccccc2C(C(=O)Nc2ccc3[nH]ncc3c2)C1c1cccs1 (stereo not drawn) [C132, N-(1H-indazol-5-yl)-2-(2-methoxyethyl)-1-oxo-3-(thiophen-2-yl)-1,2,3,4-tetrahydroisoquinoline-4-carboxamide]",1
14,"COCCN1C(=O)c2ccc(Cl)cc2C(C(=O)Nc2cccc(OC)c2)C1c1cccs1 (stereo not drawn) [C55, 6-chloro-2-(2-methoxyethyl)-N-(3-methoxyphenyl)-1-oxo-3-(thiophen-2-yl)-1,2,3,4-tetrahydroisoquinoline-4-carboxamide]",43
15,"COCCN1C(=O)c2ccc(C)cc2C(C(=O)Nc2cccc(OC)c2)C1c1cccs1 (stereo not drawn) [C40, 2-(2-Methoxyethyl)-N-(3-methoxyphenyl)-6-methyl-1-oxo-3-(thiophen-2-yl)-1,2,3,4-tetrahydroisoquinoline-4-carboxamide]",7.76
16,"COCCN1C(=O)c2ccccc2C(C(=O)Nc2ccc(C(=O)OC)c(OC)c2)C1c1cccs1 (stereo not drawn) [C114, methyl 2-methoxy-4-(2-(2-methoxyethyl)-1-oxo-3-(thiophen-2-yl)-1,2,3,4-tetrahydroisoquinoline-4-carboxamido)benzoate]",0.47
17,"COCCN1C(=O)c2ccccc2C(C(=O)Nc2ccc(OC(F)(F)F)cc2)C1c1cccs1 (stereo not drawn) [C113, 2-(2-methoxyethyl)-1-oxo-3-(thiophen-2-yl)-N-(4-(trifluoromethoxy)phenyl)-1,2,3,4-tetrahydroisoquinoline-4-carboxamide]",0.19

row,SMILES,IC50 [µg/mL]
1,"COCCN1C(=O)c2ccccc2C(C(=O)Nc2cccc(-c3cnco3)c2)C1c1cccs1 (stereo not drawn) [C210, 2-(2-methoxyethyl)-N-(3-(oxazol-5-yl)phenyl)-1-oxo-3-(thiophen-2-yl)-1,2,3,4-tetrahydroisoquinoline-4-carboxamide]",0.072
2,"COCCN1C(=O)c2ccccc2C(C(=O)Nc2cc(-c3ccccc3)[nH]n2)C1c1cccs1 (stereo not drawn) [C182, 2-(2-methoxyethyl)-1-oxo-N-(5-phenyl-1H-pyrazol-3-yl)-3-(thiophen-2-yl)-1,2,3,4-tetrahydroisoquinoline-4-carboxamide]",21.8
3,"COCCN1C(=O)c2c(F)ccc(F)c2C(C(=O)Nc2cccc(OC)c2)C1c1cccs1 (stereo not drawn) [C91, 5,8-difluoro-2-(2-methoxyethyl)-N-(3-methoxyphenyl)-1-oxo-3-(thiophen-2-yl)-1,2,3,4-tetrahydroisoquinoline-4-carboxamide]",0.32
4,"COCCN1C(=O)c2ccccc2C(C(=O)Nc2ccc(Cl)cc2N)C1c1cccs1 (stereo not drawn) [C144, N-(2-amino-4-chlorophenyl)-2-(2-methoxyethyl)-1-oxo-3-(thiophen-2-yl)-1,2,3,4-tetrahydroisoquinoline-4-carboxamide]",5.16
5,"COCCN1C(=O)c2ccccc2C(C(=O)Nc2ccc(CN3CCOCC3)cc2)C1c1cccs1 (stereo not drawn) [C188, 2-(2-methoxyethyl)-N-(4-(morpholinomethyl)phenyl)-1-oxo-3-(thiophen-2-yl)-1,2,3,4-tetrahydroisoquinoline-4-carboxamide]",0.1
6,"COCCN1C(=O)c2ccccc2C(C(=O)Nc2ccc(C(C)C)cc2)C1c1cccs1 (stereo not drawn) [C165, N-(4-isopropylphenyl)-2-(2-methoxyethyl)-1-oxo-3-(thiophen-2-yl)-1,2,3,4-tetrahydroisoquinoline-4-carboxamide]",0.4
7,"CCN1CCC[C@H]1CN1C(=O)c2ccccc2C(C(=O)Nc2cccc(OC)c2)C1c1cccs1 (stereo partly drawn) [C74, 2-(((S)-1-ethylpyrrolidin-2-yl)methyl)-N-(3-methoxyphenyl)-1-oxo-3-(thiophen-2-yl)-1,2,3,4-tetrahydroisoquinoline-4-carboxamide]",36
8,"COCCN1C(=O)c2ccccc2C(C(=O)Nc2cccc(C)c2)C1c1cccs1 (stereo not drawn) [C85, 2-(2-methoxyethyl)-1-oxo-3-(thiophen-2-yl)-N-m-tolyl-1,2,3,4-tetrahydroisoquinoline-4-carboxamide]",0.18
9,"COCCN1C(=O)c2ccccc2C(C(=O)Nc2cccc(OC)c2)C1c1cc2ccccc2s1 (stereo not drawn) [C27, 3-(Benzo[b]thiophen-2-yl)-2-(2-methoxyethyl)-N-(3-methoxyphenyl)-1-oxo-1,2,3,4-tetrahydroisoquinoline-4-carboxamide]",17.4
10,"COCCN1C(=O)c2ccccc2C(C(=O)Nc2ccc3c(c2)S(=O)(=O)C=C3)C1c1cccs1 (stereo not drawn) [C198, N-(1,1-dioxobenzo[b]thiophen-6-yl)-2-(2-methoxyethyl)-1-oxo-3-(thiophen-2-yl)-1,2,3,4-tetrahydroisoquinoline-4-carboxamide]",4
11,"COCCN1C(=O)c2cc(N)ccc2C(C(=O)Nc2cccc(OC)c2)C1c1cccs1 (stereo not drawn) [C147, 7-amino-2-(2-methoxyethyl)-N-(3-methoxyphenyl)-1-oxo-3-(thiophen-2-yl)-1,2,3,4-tetrahydroisoquinoline-4-carboxamide]",0.14
12,"COCCN1C(=O)c2ccccc2C(C(=O)Nc2ccncn2)C1c1cccs1 (stereo not drawn) [C162, 2-(2-methoxyethyl)-1-oxo-N-(pyrimidin-4-yl)-3-(thiophen-2-yl)-1,2,3,4-tetrahydroisoquinoline-4-carboxamide]",3.56
13,"COCCN1C(=O)c2cc(OC)c(OC)cc2C(C(=O)Nc2cccc(OC)c2)C1c1cccs1 (stereo not drawn) [C75, 6,7-dimethoxy-2-(2-methoxyethyl)-N-(3-methoxyphenyl)-1-oxo-3-(thiophen-2-yl)-1,2,3,4-tetrahydroisoquinoline-4-carboxamide]",43.1
14,"COc1cccc(NC(=O)C2c3ccccc3C(=O)N(CCN(C)C)C2c2cccs2)c1 (stereo not drawn) [C15, 2-(2-(Dimethylamino)ethyl)-N-(3-methoxyphenyl)-1-oxo-3-(thiophen-2-yl)-1,2,3,4-tetrahydroisoquinoline-4-carboxamide]",11.8
15,"CCN1CCCC1CN1C(=O)c2ccccc2C(C(=O)Nc2cccc(OC)c2)C1c1cccs1 (stereo not drawn) [C67, 2-((1-ethylpyrrolidin-2-yl)methyl)-N-(3-methoxyphenyl)-1-oxo-3-(thiophen-2-yl)-1,2,3,4-tetrahydroisoquinoline-4-carboxamide]",10.4
16,"COCCN1C(=O)c2ccccc2C(C(=O)Nc2ccc(F)c(Cl)c2)C1c1cccs1 (stereo not drawn) [C94, N-(3-chloro-4-fluorophenyl)-2-(2-methoxyethyl)-1-oxo-3-(thiophen-2-yl)-1,2,3,4-tetrahydroisoquinoline-4-carboxamide]",0.25
